According to patent publication US6346514B1, “Pharmaceutical lysine-containing polypeptide compositions and methods of use thereof” (priority 1991, dated 2002):

Key:
[1] = test system: methicillin-resistant S. aureus; assay: Survival of mice inoculated with 10xLD50 S. aureus, HM897 pretreatment with or without Ampicillin; type: in vivo
Procedure: As in Example 8, animals were inoculated intraperitoneally with 10×LD50 of a methicillin-resistant S. aureus suspended in brain-heart infusion broth containing 5 percent mucin. Different treatments were administered s.c., i.p., or p.o., one hour later and deaths occurring during the subsequent three days were recorded. If significant prevention of mortality (>50 percent survival) was observed, the minimum effective dose (MED) was determined.
Two control experiments were conducted. HM897 was administered as a pretreatment prior to microbial inoculation, and saline was administered i.p. The number of survivors at 72 hours was determined. […] The number of survivors at 72 hours was recorded.
Survival statistics were determined over the periods of 12, 24, 36, 48, and 72 hours. […] Survival statistics were determined over periods of 12, […], 36, 48, and 72 hours. The method of conducting the experiment is illustrated in FIG. 5.

B-lymphocytes = assay: Ig-receptor expression on B-lymphocytes of patients with secondary immunodeficiency; type: cell-based, human; settings: concentration 1 microg/ml
Procedure: The number of cells carrying Ig-receptors before and after incubation with the peptide has been measured (by means for FITC-labelled sera against human Ig).

[2] = test system: guinea-pig myelokaryocytes; assay: Colony-forming activity of macrophage precursors; type: cell-based; settings: tested 1.0 to 0.0000001 microg/ml
Procedure: This test is designed to study macrophage precursors. Cultured cells used were guinea-pig myelokaryocytes. HM897 was added to cell culture in concentrations 1.0, 0.001, 0.00001 and 0.0000001 microg/ml.

posthemorrhagic anemia = assay: Erythropoietic effect in posthemorrhagic anemia; type: in vivo, mice
Procedure: (§1) This test was designed to study posthemorrhagic anemia (acute blood loss caused by taking blood from retroorbital sinus), and hemolytic anemia induced by phenylhydrazine hydrochloride (120 mg active ingredients/kg 30 Balb/c-mice and 30 CBA-mice). HM897 was injected intraperitoneally in doses of 100 and 150 microg per kg, 3 hours and 1 day after intervention modelling anemia, for 5 days. Tester parameters: RBC, leukocytes, reticulocytes, Hb, Hct

[3] = test system: lymphoid cells differentiation; assay: Effects in thymectomized guinea pigs; type: in vivo; settings: thymectomized animals; 1 microg per kg i.m. daily for 10 days; 15th day
Procedure: Model: Thymectomy (removal of thymus): 30 mongrel male guinea pigs. Treatment: i.m. single daily 1 microg HM897 per kg for 10 days. Treatment of controls: normal saline 0.5 ml i.m. single daily for 10 days (there were two controls—thymectomized and sham-operated). Parameters were determined on the 15th day after onset of the treatment. Tested parameters: clinical blood examination, “active” T-lymphocytes and total T-lymphocytes (E-RFC), B-lymphocytes (EAC-RFC) were measured in blood, thymus, lymph nodes, spleen and red bone marrow.

[4] = test system: lymphoid cells in blood, thymus, lymph nodes, spleen and red bone marrow; assay: Effect on immune system of healthy guinea pigs; type: in vivo
Procedure: Forty male guinea pigs were used in the following test. Most of the animals were treated daily with a single dose (i.m.) of Thr-Ala-Glu-Glu-Lys (SEQ ID NO:34) (HM897) […] for five days. Control animals were treated with single daily doses of 0.5 ml (i.m.) of normal saline.
Tested parameters: clinical blood examination, non-specific resistance by lysosomal cationic test; “active” T-lymphocytes and total T-lymphocytes (E-RFC), B-lymphocytes (EAC-RFC) were measured in blood, thymus, lymph nodes, spleen and red bone marrow. […] Blood lymphocyte functional activity was evaluated by leukocyte migration inhibition (LMI) with ConA. Histological examinations of thymus, spleen, lymph nodes, bone marrow and adrenals were carried out. All of these indicia were measured on 10th and 20th days after onset of the treatment.

[5] = test system: hemodepression induced by 5-fluorouracil; assay: Hemostimulating effect in 5-fluorouracil-induced hemodepression; type: in vivo, CBA-mice
Procedure: The test was designed to study hemodepression induced by 5-fluorouracil injected i.p. in a dose 175 mg per kg (172 male CBA-mice). Treatment: peptide HM897 was administered i.p. starting from 4th day after 5-FU injection in doses 0.00001, 0.001, 0.01, 1.0 mg/kg for 5 days. Treatment of controls: normal saline i.p. for 5 days. Tested parameters: peripheral blood count and bone marrow differential count.

trypsinized thymocytes = assay: Restoration of rosette-forming capacity (E-RFC) of trypsinized thymocytes; type: cell-based, guinea-pig; settings: concentration 10 microg/ml (most active of 1, 10, 100)
Procedure: Model: A. This work was designed to study the restoration of superficial receptors on lymphocytes after proteolytic digestion or after severe secondary immunodeficiency. Thymocytes obtained from guinea-pig were trypsinized and then their rosette-forming capacity with rabbit erythrocytes (E-RFC) was evaluated. The cells were incubated with the peptide in concentrations 1, 10 and 100 microg/ml. There were two controls—intact thymocytes (not trypsinized) and trypsinized thymocytes not incubated with the peptide.

[6] = test system: hemolytic anemia induced by phenylhydrazine hydrochloride; assay: Erythropoietic effect in hemolytic phenylhydrazine-induced anemia; type: in vivo, mice; settings: 3rd day of administration
Procedure: as §1

[7] = 12 HOURS after inoculation, HM897 10 mcg/kg
[8] = 12 HOURS after inoculation, HM897 100 mcg/kg
[9] = 12 HOURS after inoculation, HM897 1000 mcg/kg
[10] = 24 HOURS after inoculation, HM897 10 mcg/kg
[11] = 24 HOURS after inoculation, HM897 100 mcg/kg
[12] = 24 HOURS after inoculation, HM897 1000 mcg/kg
[13] = 36 HOURS after inoculation, HM897 10 mcg/kg
[14] = 36 HOURS after inoculation, HM897 100 mcg/kg
[15] = 36 HOURS after inoculation, HM897 1000 mcg/kg
[16] = 48 HOURS after inoculation, HM897 10 mcg/kg
[17] = 48 HOURS after inoculation, HM897 100 mcg/kg
[18] = 48 HOURS after inoculation, HM897 1000 mcg/kg
[19] = 72 HOURS after inoculation, HM897 10 mcg/kg
[20] = 72 HOURS after inoculation, HM897 100 mcg/kg
[21] = 72 HOURS after inoculation, HM897 1000 mcg/kg

Q: Thr-Ala-Glu-Glu-Lys (TAEEK) [HM897] was tested. Which Deaths [1, 7] did it give?
A: 0

Q: And the Survival [1, 7]?
A: 100.00%

Q: What about the Survivors [1, 7] of the same substance?
A: 18

Q: What about the Deaths [1, 8] of the same substance?
A: 0

Q: What about the Survival [1, 8] of the same substance?
A: 100.00%

Q: And the Survivors [1, 8]?
A: 18

Q: And the Deaths [1, 9]?
A: 1

Q: And the Survival [1, 9]?
A: 94.44%

Q: And the Survivors [1, 9]?
A: 17

Q: And the Deaths [1, 10]?
A: 5

Q: And the Survival [1, 10]?
A: 72.22%

Q: What about the Survivors [1, 10] of the same substance?
A: 13

Q: What about the Deaths [1, 11] of the same substance?
A: 3

Q: What about the Survival [1, 11] of the same substance?
A: 83.33%

Q: And the Survivors [1, 11]?
A: 15

Q: What about the Deaths [1, 12] of the same substance?
A: 2

Q: What about the Survival [1, 12] of the same substance?
A: 88.89%

Q: And the Survivors [1, 12]?
A: 16

Q: What about the Deaths [1, 13] of the same substance?
A: 12

Q: What about the Survival [1, 13] of the same substance?
A: 33.33%

Q: And the Survivors [1, 13]?
A: 6

Q: And the Deaths [1, 14]?
A: 8

Q: What about the Survival [1, 14] of the same substance?
A: 55.56%

Q: And the Survivors [1, 14]?
A: 10

Q: And the Deaths [1, 15]?
A: 7

Q: And the Survival [1, 15]?
A: 61.11%

Q: And the Survivors [1, 15]?
A: 11

Q: What about the Deaths [1, 16] of the same substance?
A: 14

Q: What about the Survival [1, 16] of the same substance?
A: 22.22%

Q: And the Survivors [1, 16]?
A: 4

Q: And the Deaths [1, 17]?
A: 12

Q: And the Survival [1, 17]?
A: 33.33%

Q: And the Survivors [1, 17]?
A: 6

Q: And the Deaths [1, 18]?
A: 11

Q: And the Survival [1, 18]?
A: 38.89%

Q: What about the Survivors [1, 18] of the same substance?
A: 7

Q: And the Deaths [1, 19]?
A: 14

Q: And the Survival [1, 19]?
A: 22.22%

Q: What about the Survivors [1, 19] of the same substance?
A: 4

Q: And the Deaths [1, 20]?
A: 12

Q: What about the Survival [1, 20] of the same substance?
A: 33.33%

Q: And the Survivors [1, 20]?
A: 6

Q: What about the Deaths [1, 21] of the same substance?
A: 11

Q: And the Survival [1, 21]?
A: 38.89%

Q: And the Survivors [1, 21]?
A: 7

Q: What about the “survival after normally lethal i.p. dose of S. aureus” value ([1]; HM897 pretreatment) of the same substance?
A: dramatic improvement in survival

Q: And the “Survival” value ([1]; at 36 hours, across HM897 dose groups)?
A: ≤ 61%

Q: What about the “Survival” value ([1]; by 72 hours, across HM897 dose groups) of the same substance?
A: 22-39%

Q: What about the “cells carrying Ig-receptors of different types” value (B-lymphocytes) of the same substance?
A: significant increase

Q: And the “concentration from which macrophage precursors colony-forming activity is stimulated” value [2]?
A: ≥ 0.0000001 µg/mL

Q: And the “Hb level and plasma/formed elements ratio restoration” value (posthemorrhagic anemia)?
A: more rapid

Q: And the most effective dose (posthemorrhagic anemia; doses 100 and 150 i.p.)?
A: 0.15 mg/kg

Q: And the RBC count (posthemorrhagic anemia; on the 6th day after administration)?
A: 7.1 mln/ml

Q: What about the lymphoid cells differentiation [3] of the same substance?
A: does not stimulate lymphoid cells differentiation

Q: What about the lymphocyte stimulation ([4]; 10th day) of the same substance?
A: predominant T-lymphocyte stimulation

Q: What about the “mitotic activity in lymph nodes, spleen and bone marrow” value ([4]; 10th day after onset of administration) of the same substance?
A: increased level of mitotic activity

Q: What about the lymphocyte stimulation ([4]; 20th day) of the same substance?
A: both T- and B-lymphocytes

Q: What about the “lymphoid cells proliferation and differentiation in thymus and bone marrow” value ([4]; healthy guinea pigs, i.m. single daily dose for five days) of the same substance?
A: stimulates lymphoid cells proliferation and differentiation in thymus and bone marrow

Q: What about the restoration of hemopoiesis ([5]; 5-FU hemodepression, CBA-mice) of the same substance?
A: promotes active restoration of hemopoiesis

Q: And the “dose from which the peptide was active” value ([5]; i.p. for 5 days from 4th day after 5-FU 175 mg per kg)?
A: ≥ 0.001 mg/kg

Q: And the “biological activity (percentage of rosette-forming capacity restoration)” value (trypsinized thymocytes)?
A: 78/9

Q: And the erythrocytes [6]?
A: 7.2 mln/ml
